Several values for one entry are separate records, joined by “and”; a condition that tells them apart may be missing. Equal values may be shown once.
How the values were obtained:
[1] = system: control-cKD P. falciparum; experiment: Drug sensitivity of control conditional knockdown parasites; type: cell-based, Plasmodium falciparum; conditions: 0 nM vs 500 nM aTc
Experimental: Replication assays were performed using a SYBR Green method as described previously. Briefly, asynchronous parasites were diluted to 0.83% parasitemia, 3% hematocrit in 30 µl medium, and added to 30 µl of diluted compounds in medium (0.1% DMSO final concentration) in black 384-wells plates. After a 72-h incubation, 30 µl of SYBR Green diluted in lysis buffer was added according to the manufacturer’s protocol (Life Technologies). Fluorescence intensity was measured on a BioTek Synergy 2 Plate Reader after 1-h incubation and was normalized to a DMSO control (100% growth) and DHA- or epoxomicin-treatment (no growth). […] Parasite survival was assessed by flow cytometry on an Accuri C6 (BD Biosciences) with BD C6 Plus software using SYBR Green and MitoTracker Deep Red FM (Life Technologies) as nuclear stain and vital dye, respectively, and data were analyzed using FlowJo (10.5.0). […] Luminescence was measured after 72 h using the Renilla-Glo(R) Luciferase Assay System (Promega E2750) and the GlomAX® Discover Multimode Microplate Reader (Promega). The luminescence values were normalized to DMSO vehicle (100% growth) and 200 nM chloroquine-treated (no growth) samples as controls.

Pharmacokinetics in rats = type: in vivo, Sprague Dawley rats
Experimental: (§1) Subsequently, samples were spun down at 1640 g for 5-10 min at 4 °C within 30 min after collection and plasma was collected. […] Urine was collected following an intravenous dose in both rat and dog, allowing renal clearance to be estimated. Human renal clearance was estimated from dog renal clearance as previously described[40] and other human PK parameters were predicted using allometric scaling and/or in vitro clearance data. PK parameters were calculated by naïve pooled approach using WinNonLin software (Phoenix, version 6.3).

Renal excretion in dogs = type: in vivo, dog; conditions: for Concentration (ng/ml) in urine: dog urine, individual dogs 1-3
Experimental: as §1, with “A blood sample from the saphenous vein was collected into heparinized capillary tubes at multiple intervals between 0.25 and 24 h after dosing. Subsequently,” for “Subsequently,”

[2] = 7-day PK toxicity rat study; type: in vivo, Wistar Han rats; design: AUC(0 - t) / Cmax / Concentration (PK study): unit not given here; conditions: for Concentration (PK study): Females 60 mg/kg/day
Description: See the summary of the study design in Supplementary Table 31. Nine-week-old Wistar (Crl:WI (Han)) rats were obtained from Charles River Laboratories (Domaine des Oncins, Saint-Germain-Nuelles, France). […] Animals were examined daily for any altered clinical signs, body weights, and food consumption. Blood samples were taken at different timepoints after the test item administration, and toxicokinetic exposure assessed under the defined experimental conditions and analyzed using Phoenix (version 6.4 and 1.4) (Supplementary Table 32). Measurements included hematology and clinical chemistry measurements. Animals were euthanized and necropsied at the end of the dosing period. At necropsy, major organ systems and tissues were collected and weighed and then examined for gross lesions as well as for microscopic changes.

C[C@@H](CNC(=O)[C@H](O)C(C)(C)CO)NC(=O)c1cc(F)c(F)cc1F [MMV693183]
IC50 change upon knockdown [1]: no difference in sensitivity
Observed hepatic/ predicted hepatic (Pharmacokinetics in rats; Rat): 1.0
Observed total-renal = observed hepatic (Pharmacokinetics in rats; Rat): 13.5 mL/min/kg
Predicted hepatic plasma clearance (Pharmacokinetics in rats; Rat): 13.3 mL/min/kg
Norm. conc i.v. (Pharmacokinetics in rats; Rat, Time (hrs) 0): 0 ng/mL
Norm. conc i.v. (Pharmacokinetics in rats; Rat, Time (hrs) 0.083333): 1040 ng/mL and 843.333 ng/mL
Norm. conc i.v. (Pharmacokinetics in rats; Rat, Time (hrs) 0.25): 746.667 ng/mL and 613.333 ng/mL and 566.667 ng/mL
Norm. conc i.v. (Pharmacokinetics in rats; Rat, Time (hrs) 0.5): 490 ng/mL and 406.667 ng/mL and 376.667 ng/mL
Norm. conc i.v. (Pharmacokinetics in rats; Rat, Time (hrs) 1): 217.333 ng/mL and 175 ng/mL and 167 ng/mL
Norm. conc i.v. (Pharmacokinetics in rats; Rat, Time (hrs) 2): 53.3333 ng/mL and 56.3333 ng/mL and 51.6667 ng/mL
Norm. conc i.v. (Pharmacokinetics in rats; Rat, Time (hrs) 4): 21.4 ng/mL and 17.9 ng/mL and 18.1 ng/mL
Norm. conc p.o. (Pharmacokinetics in rats; Rat, Time (hrs) 0): 0 ng/mL
Norm. conc p.o. (Pharmacokinetics in rats; Rat, Time (hrs) 0.25): 726.667 ng/mL and 573.333 ng/mL and 746.667 ng/mL
Norm. conc p.o. (Pharmacokinetics in rats; Rat, Time (hrs) 0.5): 686.667 ng/mL and 511.333 ng/mL and 591.333 ng/mL
Norm. conc p.o. (Pharmacokinetics in rats; Rat, Time (hrs) 1): 380.667 ng/mL and 303.333 ng/mL and 362 ng/mL
Norm. conc p.o. (Pharmacokinetics in rats; Rat, Time (hrs) 4): 22.4667 ng/mL and 18.8 ng/mL and 29.5 ng/mL
Norm. conc p.o. (Pharmacokinetics in rats; Rat, Time (hrs) 8): 12.2 ng/mL and 7.667 ng/mL and 10.6333 ng/mL
AUC0-∞ (Pharmacokinetics in rats; i.v. 3 mg/kg, mean): 2398.4 ng·h/mL
AUClast (Pharmacokinetics in rats; i.v. 3 mg/kg, mean): 2394.8 ng·h/mL
C0 (Pharmacokinetics in rats; i.v. 3 mg/kg, mean): 3245.1 ng/mL
Kel (Pharmacokinetics in rats; i.v. 3 mg/kg, mean): 0.22 h⁻¹
Vss_obs (Pharmacokinetics in rats; i.v. 3 mg/kg, mean): 1.9624 L/kg
CLtotal (Pharmacokinetics in rats; i.v. 3 mg/kg, mean, 3 mg/kg): 21.1 mL/min/kg and 21.14 mL/min/kg and 21 mL/min/kg
T1/2 (Pharmacokinetics in rats; i.v. 3 mg/kg, mean, 3 mg/kg): 3.1 h and 3.13 h
AUC0-∞ (Pharmacokinetics in rats; p.o. 30 mg/kg, mean): 29077.1 ng·h/mL
AUClast (Pharmacokinetics in rats; p.o. 30 mg/kg, mean): 29063.9 ng·h/mL
CLtotal (Pharmacokinetics in rats; p.o. 30 mg/kg, mean): 17.57 mL/min/kg
Cmax (Pharmacokinetics in rats; p.o. 30 mg/kg, mean): 20466.7 ng/mL
Kel (Pharmacokinetics in rats; p.o. 30 mg/kg, mean): 0.27 h⁻¹
T1/2 (Pharmacokinetics in rats; p.o. 30 mg/kg, mean): 2.57 h
Tmax (Pharmacokinetics in rats; p.o. 30 mg/kg, mean): 0.25 h
%F (Pharmacokinetics in rats; p.o. 30 mg/kg, mean, 30 mg/kg): 121% and 121.24%
Observed renal plasma clearance (Renal excretion in dogs; Dog): 1.0 mL/min/kg
Dose in urine (Renal excretion in dogs; Mean): 0.0332
Total in urine (Renal excretion in dogs; Mean): 384 µg
Concentration (ng/ml) in urine (Renal excretion in dogs; interval 0 to 4 h): 2790 ng/mL and 4550 ng/mL and 7660 ng/mL
Concentration (ng/ml) in urine (Renal excretion in dogs; interval 8 to 24 h): 6890 ng/mL and 3700 ng/mL
drug eliminated in urine (Renal excretion in dogs; dogs, i.v. 1 mg/kg, dog with 170 ml urine): 8.9%
Dose in urine (Renal excretion in dogs; i.v. 1 mg/kg, total per animal 1-3, 1 mg/kg): 0.002 and 0.089 and 0.009
Total in urine (Renal excretion in dogs; total 0-24 h per animal 1-3): 22.32 µg and 1030.9 µg and 98.8 µg
mortality ([2]; 60, 200 mg/kg/day, 7 days): no mortality occurred
Liver weight ([2]; PK 60 mg/kg/day, Females): 6.5972 g
Liver weight ([2]; PK 60 mg/kg/day, Males): 11.4290 g
Liver weight ([2]; PK 200 mg/kg/day, Females): 8.4371 g
Liver weight ([2]; PK 200 mg/kg/day, Males): 13.5439 g
Concentration (PK study) ([2]; Day 4, 8 hr): 867 and 896 and 826
Concentration (PK study) ([2]; Day 5, 8 hr): 531 and 997 and 950
